Measurements as given in patent US7868163B2, “Adenyl dinucleotides with antitumour activity and a method of preparing thereof” (Universita' Degli Studi Di Genova, priority 2005, dated 2011).

Key:
[1] = tested on: A. polypoides ADP-ribosyl cyclase; test: Hydrolysis by purified Axinella polypoides ADP-ribosyl cyclase; details: purified A. polypoides cyclase; P18 to cADPR and adenine
Method: ADP-ribosyl cyclases from lower and higher Metazoa were incubated in the presence of 0.1 mM cADPR and 1 mM adenine at pH 7.4 in 10 mM Tris-HCl (A, B and C) or in PBS-glucose (D) at 22° C. (A and B) or at 37° C. (C and D) for 4 hours. Aliquots of the various incubations were deproteinised with TCA (trichloroacetic acid) and subjected to HPLC (analytical phosphate). Chromatograms representative of each incubation are shown. A. A. polypoides; B. A. californica; C. Human CD38 (recombinant); D. Human HeLa cells transfected with sense and antisense human CD38 (dashed chromatogram).
In table 1, the absolute values of the peak-forming and -hydrolysing activities are compared with the cADPR-forming and -hydrolysing activities for each enzyme. The activities are expressed as nmol/min/mg.

[2] = molecular target: NAD-glycohydrolase (NAD-ase, from Neurospora) (Neurospora crassa, UniProt Q7S936); test: Resistance to NAD-glycohydrolase catalysed hydrolysis
NAD-glycohydrolase (NAD-ase, from Neurospora), sequence (Q7S936 20-243): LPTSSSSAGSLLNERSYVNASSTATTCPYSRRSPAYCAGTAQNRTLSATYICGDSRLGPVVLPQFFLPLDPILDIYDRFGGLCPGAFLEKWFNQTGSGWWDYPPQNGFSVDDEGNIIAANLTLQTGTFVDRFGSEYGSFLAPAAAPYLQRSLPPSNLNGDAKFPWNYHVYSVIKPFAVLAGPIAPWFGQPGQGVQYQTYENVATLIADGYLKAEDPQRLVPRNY
Method: The HPLC fractions were lyophilised, resuspended in 200 μl water and the pH eas adjusted to 7.5 with 5N NaOH. Then, in order to remove all traces of NAD^+ and cADPR (which might interfere with the enzymatic assay), NAD-glycohydrolase (NAD-ase, from Neurospora, Sigma) (0.013 IU), recombinant CD38 (0.1 μg, provided by Prof. H. C. Lee, Minneapolis, Minn.) and 2 mM MgCl2 were added to each fraction. […] All fractions were incubated at 37° C. for 18 hours, and the enzymes were removed by filtration with Immobilon-P membranes (Millipore, Bedford, Mass.). The samples were then subdivided into two aliquots and the P18 determination reactions were performed in 96 well plates, at room temperature. 50 μl of a mixture containing 30 mM nicotinamide, 100 mM sodium phosphate, with or without 0.1 μg/μl of ADP-ribosyl cyclase purified from A. polypoides, were added to 100 μl of each sample.

Nc1ncnc2c1ncn2[C@@H]1O[C@H](COP(=O)(O)OP(=O)(O)OC[C@H]2O[C@@H](n3cnc4ncnc-4c3N)[C@H](O)[C@@H]2O)[C@@H](O)[C@H]1O [P18]
hydrolysis activity [1]: 10.5^2 nmol/min/mg
resistance to NAD-ase catalysed hydrolysis [2]: resistance
